Paper PMC3834215, “RedOx Status, Proteasome and APEH: Insights into Anticancer Mechanisms of t10,c12-Conjugated Linoleic Acid Isomer on A375 Melanoma Cells” (PLoS ONE, 2013)
Values belong to the compound of their own block, whether it stands above or below them.

Key:
20S human proteasome = target: T1, 20S human proteasome (Homo sapiens, UniProt P28074); assay: Cell-free inhibition of chymotrypsin-like (CT-like) activity of 20S proteasome; assay type: biochemical; conditions: for IC50: 30 min pre-incubation, 37 °C, pH 7.5, N-Suc-LLVT-AMC 0.080 mM, read-out: IC50 on 20S isoform (CT-like activity)
T1 construct: purchased Boston Biochem
Method: (§1) The fluorescent substrate N-succinyl-Leu-Leu-Val-Tyr-7-amido-4-methylcoumarin (N-Suc-LLVT-AMC) was used for measurement of the CT-like activity of the proteasome, both in cell free assays and in cancer cell extracts, at a final concentration of 0.080 mM at 37 °C in Tris buffer pH 7.5, following the procedure described in Palmieri et al..
(§2) Protease inhibition activities of CLA isomers and fatty acids were carried out using a fixed amount of commercially available APEH or 20S, 20Si, 26S proteasomes (3-5 nM or 0.12 mg/mL, respectively), and increasing concentrations of fatty acid. Mixtures were pre-incubated for 30min at 37 °C in 50 mM Tris-HCl buffer pH 7.5, before addition of the specific substrate, and the enzymatic activities were followed as described above.

A375 melanoma cells = assay: MTT cell viability, A375; assay type: cell-based, human; conditions: for reduction of cell viability: A375, 24h exposure, 50 to 200 μM
Method: (§3) The colorimetric 3-(4,5-dimethylthiazol-2)-2,5-diphenyltetrazolium bromide (MTT) (Sigma Aldrich, Milan) assay was used to quantify cell viability. Briefly, cells were incubated in 96 well microplates in the appropriate complete medium with standardized densities for 24h as pre-incubation process. The medium was removed and replaced by medium containing different doses of the different CLA-isomers for 24h. Following treatment, the medium was removed and the cells were incubated with DMEM w/o red phenol with 0.5 mg/ml MTT for additional 2 to 4h at 37 °C. After removal of the medium and MTT, cells in each plate were incubated with 0.1 M HCl/isopropanol to dissolve the MTT-formazan crystals. Absorbance at 590 nm was recorded with a plate reader (Bio Rad mod 680). The relative number of viable cells was expressed as a percentage of the control.

[1] = test system: A375M metastatic melanoma cells; assay: MTT cell viability, A375M; assay type: cell-based, human; conditions: 24h exposure, 50 to 200 μM
Method: as §3

20Si human proteasome = target: T2, 20Si human proteasome (Homo sapiens, UniProt P28062); assay: Cell-free inhibition of CT-like activity of 20Si proteasome; assay type: biochemical; conditions: for IC50: 30 min pre-incubation, 37 °C, pH 7.5, N-Suc-LLVT-AMC 0.080 mM, read-out: IC50 on 20Si isoform (CT-like activity)
T2 construct: purchased Boston Biochem
Method: The fluorescent substrate N-succinyl-Leu-Leu-Val-Tyr-7-amido-4-methylcoumarin (N-Suc-LLVT-AMC) was used for measurement of the CT-like activity of the proteasome, both in cell free assays and in cancer cell extracts, at a final concentration of 0.080 mM at 37 °C in Tris buffer pH 7.5, following the procedure described in Palmieri et al. [25].

[2] = test system: MDA-MB mammary adenocarcinoma cells; assay: MTT cell viability, MDA-MB; assay type: cell-based, human; conditions: 24h exposure, 50 to 200 μM
Method: as §3

[3] = test system: all cancer cells (U87, MCF7, MDA-MB, HeLa, Caco2, HepG2, A375M, A375); assay: MTT cell viability, eight cancer cell lines; assay type: cell-based, human; conditions: up to 200 μM, 24h, data not shown
Method: as §3

γGCL mRNA in A375 cells = assay: γGCL mRNA by qRT-PCR in A375; assay type: cell-based, human; conditions: A375, 200 μM, end of time course
[4] = test system: proteasomal CT-like activity in A375 cells; assay: Proteasomal CT-like activity in A375 cytoplasmic extracts after treatment; assay type: cell-based, human; conditions: for proteasomal CT-like activity inhibited to: 24h
Method: as §1
(§4) Following the treatments, cells were washed three times with ice cold phosphate-buffer saline (PBS) and cytosolic extracts were prepared accordingly to a published procedure. Protein concentrations were determined in supernatants by BCA protein assay reagent kit (Pierce). Western blotting analyses were performed as previously described.

APEH mRNA in A375 cells = assay: APEH mRNA by qRT-PCR in A375; assay type: cell-based, human
Method: (§5) mRNA expression levels of APEH and β-5 proteasome subunit were determined in treated or untreated cells to investigate on the functional relationship existing between APEH and proteasome activities and on their involvement in the anticancer activity of CLA.
(§6) Total RNA was isolated from the human cell lines (~10^6 cells aliquots) according to the SV Total RNA Isolation System (Promega) protocol, with an on column DNase I step. Total RNA concentrations were determined using a Qubit® Fluorometer (Invitrogen). RNAs were then reverse transcribed using the Transcriptor First Strand cDNA Synthesis Kit (Roche). 100 ng of reverse transcribed complementary DNA, and its dilution series to calculate the efficacy of primers, were amplified by quantitative real-time PCR (qRT-PCR) on an iCycleriQ™ (Bio-Rad) using 300 nM gene-specific primers, Maxima® SYBR Green/Fluorescein qPCR Master Mix (2X) (Fermentas) and the following PCR conditions: 1 cycle at 95 °C for 10min, and 40 cycles of 95 °C for 15s , 60 °C for 30s, and 72 °C for 30s.
(§7) The expression level of β-actin gene was used as an internal control for normalization (ref gene). Raw cycle threshold values (Ct values) obtained for the target genes were compared to the Ct value obtained for the ref gene. […]

Porcine liver APEH = target: T3, Porcine liver APEH (Sus scrofa, UniProt P19205); assay: Cell-free APEH inhibition assay (acetyl-Ala-pNA); assay type: biochemical
T3 construct: purchased Takara; host or cells: porcine liver
T3 sequence (P19205 1-732): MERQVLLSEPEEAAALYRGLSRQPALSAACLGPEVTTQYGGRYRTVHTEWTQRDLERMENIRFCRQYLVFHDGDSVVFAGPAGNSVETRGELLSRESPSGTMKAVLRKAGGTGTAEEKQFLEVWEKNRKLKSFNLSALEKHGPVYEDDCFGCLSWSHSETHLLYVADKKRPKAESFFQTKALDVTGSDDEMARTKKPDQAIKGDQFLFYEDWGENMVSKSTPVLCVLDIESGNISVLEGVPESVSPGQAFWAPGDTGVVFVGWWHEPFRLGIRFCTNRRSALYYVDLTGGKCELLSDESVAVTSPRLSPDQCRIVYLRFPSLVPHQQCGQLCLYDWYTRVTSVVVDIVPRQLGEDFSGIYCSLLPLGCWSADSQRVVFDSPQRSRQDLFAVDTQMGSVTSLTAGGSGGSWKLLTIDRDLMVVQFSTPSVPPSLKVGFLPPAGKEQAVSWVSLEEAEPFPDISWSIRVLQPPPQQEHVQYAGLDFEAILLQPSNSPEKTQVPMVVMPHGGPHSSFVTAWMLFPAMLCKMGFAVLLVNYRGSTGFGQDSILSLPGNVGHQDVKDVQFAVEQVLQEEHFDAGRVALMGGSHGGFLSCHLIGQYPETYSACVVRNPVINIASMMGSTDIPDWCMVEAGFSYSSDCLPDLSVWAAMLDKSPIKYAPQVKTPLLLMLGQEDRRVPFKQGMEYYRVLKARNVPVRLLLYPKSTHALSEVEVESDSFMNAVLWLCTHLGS
Method: (§8) APEH activity was measured spectrophotometrically using the chromogenic substrate acetyl-Ala-pNA (Bachem) as described before. The reaction mixture containing pure APEH or an appropriate amount of cell extract was incubated at 37 °C in 50 mM Tris-HCl, pH 7.5 (Tris Buffer).
as §2

[5] = test system: HeLa cervical carcinoma cells; assay: MTT cell viability, HeLa; assay type: cell-based, human; conditions: 24h exposure, 50 to 200 μM
Method: as §3

[6] = test system: APEH activity in A375 cells; assay: APEH activity in A375 cytoplasmic extracts after treatment; assay type: cell-based, human
Method: as §8, §4

human fibroblasts = assay type: cell-based
Method: Human hepatoma cells (HepG2) were seeded (2x10^4cells/cm^2) and maintained for 24h in MEM (Gibco Invitrogen; Milano) medium supplemented with 2 mM L-glutamine, 1% nonessential amino acids and 10% FBS. Colon carcinoma (Caco-2), cervical carcinoma (Hela), glioblastoma (U87), melanoma (A375, A375M) and mammary adenocarcinoma (MCF7, MDA-MB) were seeded (1x10^4cells/cm^2) and grown in DMEM supplemented with 10% FBS, 2 mM L-glutamine. HepG2, Hela, U87, Caco-2, MCF7, MDA-MB, A375 and A375 metastatic melanoma (A375M) cell lines were obtained by ATCC (LCG standards, Milano, Italy). Normal human dermal fibroblast (NDHF) within 8th passage were seeded at a density of 2x10^4 cells/cm^2 and cultured in fibroblast growth medium (FGM-2; Lonza, Milan, Italy) containing 2% FBS, 50 μg/mL gentamycin and amphotericin B, 10μg/mL fibroblast growth factor and insulin. BHK21 cells (kindly donated by Dr. David Y Thomas, McGill University Montreal Canada) were cultured in DMEM/F12, 5% FBS, 1 mM L-glutamine, 200 µg/mL methotrexate, and 100units/mL penicillin-streptomycin. […]
The colorimetric 3-(4,5-dimethylthiazol-2)-2,5-diphenyltetrazolium bromide (MTT) (Sigma Aldrich, Milan) assay was used to quantify cell viability. […] Absorbance at 590 nm was recorded with a plate reader (Bio Rad mod 680). The relative number of viable cells was expressed as a percentage of the control.

[7] = test system: β-5 proteasome subunit mRNA in A375 cells; assay: β-5 proteasome subunit mRNA by qRT-PCR in A375; assay type: cell-based, human
Method: as §5, §6, §7

Bcl-2 in A375 cells = assay: Bcl-2 protein expression by immunoblotting in A375; assay type: cell-based, human; conditions: A375, 24h, 50-200 μM
Method: as §4

[8] = test system: intracellular GSH in A375 cells; assay: Intracellular GSH in A375; assay type: cell-based, human; conditions: A375, 24h, 50, 100 or 200 μM
Method: Intracellular concentration of reduced and oxidized glutathione (GSH and GSSG, respectively) were quantified using the 5,5'-dithiobis(2-nitrobenzoic acid)-GSSG reductase recycling assay. GSSG content was preliminarily evaluated in cytosolic extracts of treated or untreated cells upon the addition of 10 mM 1-methyl-2-vinylpyridinium trifluoromethanesulfonate (a specific GSH scavenger).

caspase 3 in A375 cells = assay: Caspase 3 activity in A375 cells; assay type: cell-based, human; conditions: A375, 24h, doses 50, 100 or 200 μM, dose-dependent, maximum
Method: Pro-apoptotic and cytotoxic ability of CLA isomers were assayed by measuring caspase 3 and the activity of lactate dehydrogenase (LDH) in the spent media, respectively [25]. The caspase 3 activity, measured at 37 °C and pH 7.5, was expressed as fold increase compared to the control culture.

[9] = negative control, data not shown

inhibition reached, 20S (20S human proteasome; plateau of dose-response curve): about 60% | IC50 (A375 melanoma cells; Homo sapiens, A-375, read-out: IC50 (dose accountable for 50% decrease of cell viability), A375, 24h): 0.01 ± 2e-05 µM
SMILES: CC(C)C[C@H](NC(=O)[C@H](Cc1ccccc1)NC(=O)c1cnccn1)B(O)O [BTZ, bortezomib, reference compound]

IC50 (20S human proteasome): 31.2 ± 8.8 µM | IC50 (20Si human proteasome): 6.4 ± 1 µM
SMILES: CCCCCC/C=C/C=C\CCCCCCCC(=O)O [c9,t11-CLA, cis9,trans11 (c9,t11-CLA)]
reduction of cell viability (A375 melanoma cells): < 40% | reduction of cell viability [1]: < 40% | reduction of cell viability [2]: < 40%

SMILES: CCCCCC/C=C/C=C/CCCCCCCC(=O)O [t9,t11-CLA]
reduction of cell viability (A375 melanoma cells): about 50%

inhibitory effect on 20S CT-like activity (20S human proteasome; [9]): only negligible effects | inhibitory effect on 20Si CT-like activity (20Si human proteasome; [9]): only negligible effects
SMILES: CCCCCCCC(=O)O [octanoic acid, reference compound]
effect on cell viability [3]: no significant results

IC50 (20S human proteasome): 14.8 ± 2 µM | IC50 (Porcine liver APEH; 37 °C, pH 7.5): 110 ± 11.7 µM | maximum inhibition of APEH (Porcine liver APEH; dose-dependent): about 41% | IC50 (20Si human proteasome): 1.1 ± 0.2 µM
SMILES: CCCCC/C=C\C=C\CCCCCCCCC(=O)O [t10,c12-CLA, trans10,cis12 (t10,c12-CLA)]
down-regulation of γGCL mRNA levels (γGCL mRNA in A375 cells): 1.5 fold | proteasomal CT-like activity plateau, % of starting value ([4]; A375, 50 μM, plateau after 8h): 70% | proteasomal CT-like activity inhibited to ([4]; A375, 100 μM): 50% | proteasomal CT-like activity inhibited to ([4]; A375, 200 μM): 25% | APEH mRNA stable final value vs initial expression level (APEH mRNA in A375 cells; A375, 50 μM, time course): approximately one-fold lower | APEH mRNA level (APEH mRNA in A375 cells; A375, 200 μM, 24h): strongly down-regulated | reduction of cell viability (A375 melanoma cells): 63% | reduction of cell viability [5]: 40% | APEH activity plateau, % of starting value ([6]; A375, 50 μM, plateau after 8h): 80% | APEH activity plateau, % of starting level ([6]; A375, 200 μM, time course): 70% | reduction of cell viability [1]: 51% | toxic effects on fibroblast proliferation (human fibroblasts): lack of toxic effects | β-5 mRNA stable final value vs initial expression level ([7]; A375, 50 μM, time course): approximately one-fold lower | proteasome (β-5) mRNA level ([7]; A375, 200 μM, 24h): strongly down-regulated | maximum reduction of Bcl-2 expression (Bcl-2 in A375 cells): 80% | intracellular GSH [8]: significant decline | caspase 3 activation compared to the control culture (caspase 3 in A375 cells): eightfold increase
